Results published in PubChem BioAssay (NCI).
Where “and” joins values, the source holds several entries; their conditions need not be identical. Identical values can stand only once.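 Cultured in 96-well plates, cells were exposed to test compound for 48 hours across five concentrations. At the GI50, growth is halved. TGI: concentration producing complete growth inhibition.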

Legend:
Assay in all cases: NCI tumour cell line growth inhibition, 48 h
[1] = test system: HOP-62 NSCLC
[2] = test system: OVCAR-3 ovarian
[3] = test system: HCC-2998 colon
[4] = test system: NCI-H460 lung
[5] = test system: MOLT-4 leukemia
[6] = test system: MDA-MB-435
[7] = test system: ACHN renal
[8] = test system: NCI-H522 lung
[9] = test system: HT29 colon
[10] = test system: EKVX NSCLC

SMILES | TGI [1] | TGI [2] | TGI [3] | TGI [4] | TGI [5] [µM] | TGI [6] | TGI [7] | TGI [8] | TGI [9] | TGI [10] | GI50 [1] [µM] | GI50 [2] [µM] | GI50 [3] [µM] | GI50 [4] [µM] | GI50 [5] [µM] | GI50 [6] [µM] | GI50 [7] [µM] | GI50 [8] [µM] | GI50 [9] [µM] | GI50 [10] [µM]
C[C@]12CC[C@H]3[C@@H](CCC4=C[C@@H](OC5OCC(OC6OC(CO)C(O)C(O)C6O)C(O)C5O)CC[C@@]43C=O)[C@@]1(O)CCC2C1=CC(=O)OC1 (stereo partly drawn) | 1.84 µM | 1.43 µM | 1.38 µM | 0.534 µM | 0.346 | 3.71 µM | 2.25 µM | 2.88 µM | 5.35 µM | 1.64 µM |  |  |  |  |  |  |  |  |  | 
O=C(Nc1ccccc1C(=O)Nc1nccs1)c1ccccc1 | > 100 µM | 36.6 µM | > 100 µM | > 100 µM | > 100 | > 100 µM | > 100 µM | > 100 µM | > 100 µM | > 100 µM |  |  |  |  |  |  |  |  |  | 
C=C(C)[C@@H]1CC[C@]2(C)[C@H](CC=C3[C@@H]4[C@H](C)[C@@H](C)CC[C@]4(CO)CC[C@]32C)[C@@]1(C)CCCN | 2.36 µM | 1.79 µM | 1.62 µM | 1.71 µM | 4.07 | 1.81 µM | 3.4 µM | 2.17 µM | 2.04 µM | 2.94 µM | 1.08 | 0.934 | 0.873 | 0.914 | 1.35 | 0.953 | 1.42 | 1.04 | 0.99 | 1.08
N#Cc1c(NCc2ccccc2)nc(NCc2ccccc2)c(C#N)c1-c1cccc(O)c1 | 23.1 µM | 19.4 µM | > 100 µM | 31.4 µM | > 100 | 9.97 µM | 11.7 µM | 33.1 µM | > 100 µM | 45 µM | 10.5 | 3.31 | 95.5 | 14.9 | 3.3 | 2.91 | 2.63 | 5.89 | 41.3 | 11.6
COc1cc(/C=C/c2cc(/C=C/c3ccc(O)c(OC)c3)[nH]c(=O)n2)ccc1O | 17.6 µM | 33.5 µM | 14.3 µM | 18.5 µM | 11.7 | 18.2 µM | > 100 µM | 7.95 µM | 2.67 µM | 72.8 µM | 4.11 | 3.8 | 3.55 | 3.12 | 2.55 | 2.72 | 8.84 | 2.57 | 1.3 | 3.89
N#CC1CCc2c(c(-c3cn[nH]c3C(F)(F)F)nc3c(F)cc4[nH]ncc4c23)C1 (stereo not drawn) | 33.7 µM | 42.6 µM | 28.1 µM | 38.8 µM | 42.7 | 41.1 µM | 75.1 µM | 8.61 µM | > 100 µM | 28.2 µM | 6.09 | 4.89 | 11 | 11.8 | 3.49 | 4.43 | 8.21 | 2.31 | 9.6 | 5.93
CC(=O)NS(=O)(=O)c1ccc(-n2nc(-c3ccccc3)cc2C2=CC(=O)C=CC2=O)cc1 | > 100 µM | > 100 µM |  | > 100 µM | 73.7 | > 100 µM | > 100 µM | > 100 µM | > 100 µM | > 100 µM | > 100 | > 100 |  | > 100 | 16.4 | > 100 | > 100 | > 100 | > 100 | > 100
CC(C)(O)CCC(O)C(C)(O)C1CCC2(O)C3=CC(=O)C4(O)CC(O)C(O)CC4(C)C3CCC12C (stereo not drawn) (tested in a mixture with another compound) | > 100 µM | > 100 µM |  | > 100 µM | > 100 | > 100 µM | > 100 µM | > 100 µM | > 100 µM | > 100 µM |  |  |  |  |  |  |  |  |  | 
COc1ccc(S(=O)(=O)n2c3ccccc3n3ncc(-c4nnc(C)o4)c23)cc1 | > 85.5 µM | 2.45 µM | 16.8 µM | > 48.3 µM | > 100 | > 100 µM | > 100 µM | > 73.6 µM | > 100 µM | > 100 µM | 0.566 | 0.342 | 1.38 | 0.425 | 0.502 | 0.339 | 0.567 | 0.42 | 0.381 | 1.12
COc1cc(N=Nc2cccc(S(N)(=O)=O)c2)c2ccccc2c1N | 21.8 µM | 27.5 µM | 20.7 µM | 25.7 µM | 25.2 | 3.71 µM | 30.3 µM | 30.6 µM | 31 µM | 27.4 µM |  |  |  |  |  |  |  |  |  | 
C#CCOc1cccc(Nc2ncc3ncn(C4CCN(C(=O)CCl)C4)c3n2)c1 (stereo not drawn) | > 62.5 µM | > 62.5 µM | > 62.5 µM | > 62.5 µM | > 62.5 | > 62.5 µM | 46.2 µM | 18.1 µM | > 62.5 µM | > 62.5 µM | > 62.5 | 37.8 | > 62.5 | > 62.5 | 11.3 | > 62.5 | 14.6 | 7.08 | > 62.5 | > 62.5
O[C@H](CN1CC1)[C@@H](O)CN1CC1 | 47.2 µM | 35.2 µM | 51.3 µM | 22.9 µM | > 100 | 29.8 µM | 14.7 µM | 83.3 µM | 26.6 µM | 49.6 µM | 3.41 | 13.3 | 13.8 | 0.496 | 0.86 | 10.5 | 0.499 | 8.2 | 10.2 | 15
O=C(Nc1cccc([N+](=O)[O-])c1)c1cc2ccccc2cc1O | 3.72 µM | 7.33 µM | 6.11 µM | > 100 µM | 6.24 | 5.41 µM | 7.79 µM | 2.66 µM | > 30.7 µM | 8.2 µM | 1.19 | 0.783 | 2.16 | 1.87 | 2.08 | 1.5 | 2.03 | 0.384 | 3.09 | 1.87
O=C(Nc1ccc(-c2ccnc(Nc3ccc(N4CCOCC4)cc3)n2)cc1)C1CCCN1 (stereo not drawn) | 27.7 µM | 27.3 µM | 25 µM | 16.4 µM | 33.2 | 21.5 µM | 25.2 µM | 21.1 µM | 23.3 µM | 33.7 µM | 5.16 | 9.43 | 11.3 | 1.6 | 3.04 | 6.39 | 4.27 | 6.23 | 3.89 | 12.5
COc1ccc(/C=C/c2cnc3ccccc3n2)cc1OC | > 100 µM | > 100 µM |  | > 100 µM | > 100 | > 100 µM | > 100 µM | 69.5 µM | > 100 µM | > 100 µM |  |  |  |  |  |  |  |  |  | 
Cc1cc(S(=O)(=O)Nc2nc3cc(-c4ccsc4)sc3c(=O)n2N)c(S)cc1Cl | > 100 µM | > 100 µM | > 100 µM | > 100 µM | > 100 | > 100 µM | > 100 µM | > 100 µM | > 100 µM | > 100 µM | 50 | > 100 | 48.4 | 31.4 | 68 | 85.3 | 30.4 | > 100 | 30.4 | > 100
Cc1cc(O)c2c(c1)C(=O)C(c1c(C)cc3c(c1O)C(=O)C1OC1C3=O)=CC2=O (stereo not drawn) | 26.3 µM | 5.87 µM | 17.2 µM | 25.8 µM |  | 7.71 µM | 2.36 µM | 1.4 µM | 11.7 µM | 12.5 µM |  |  |  |  |  |  |  |  |  | 
N#C/C(=C\c1cccnc1)c1nc2ccccc2o1 | > 100 µM | > 100 µM | > 100 µM | > 100 µM | > 100 | > 100 µM | > 100 µM | > 100 µM | > 100 µM | > 100 µM | > 100 | > 100 | > 100 | > 100 | > 100 | > 100 | > 100 | > 100 | > 100 | > 100
CC(=O)Nc1cc2cc(NS(=O)(=O)c3cc(C(F)(F)F)cc(C(F)(F)F)c3)ccc2oc1=O | > 100 µM | > 100 µM | > 100 µM | > 100 µM | > 100 | > 100 µM | > 100 µM | > 100 µM | > 100 µM | > 100 µM |  |  |  |  |  |  |  |  |  | 
O=[N+]([O-])c1ccc(NC(=S)N/N=C(\c2ccccc2)c2ccccn2)cc1 | 2.98 µM and 1.62 µM | 1.36 µM and 2.76 µM | 4.26 µM and 2.83 µM | 3.36 µM and 11.9 µM | > 20.5 | 3.15 µM and 3.17 µM | 2.62 µM and 2.39 µM | 4.2 µM and 1.48 µM | 3.12 µM and 2.78 µM | 3.45 µM and 2.19 µM | 1.3 |  | 2.1 | 1.47 | 0.00433 |  | 1.34 | 1.97 | 1.56 | 1.87
C=C1C(=O)O[C@H]2[C@H]1CC/C(COC(=O)/C=C/c1c[nH]c3ccccc13)=C\CC[C@@]1(C)O[C@@H]21 | 2.16 µM | 0.37 µM |  | 2.66 µM | 1.78 | 0.582 µM | 0.545 µM | 0.371 µM | 0.416 µM | 0.769 µM | 0.829 | 0.173 |  | 1.01 | 0.302 | 0.222 | 0.202 | 0.186 | 0.195 | 0.238
CN(C)c1ccc(N=C(C#N)c2nc(N)nc(N3CCN(c4ccccc4)CC3)n2)cc1 | > 50 µM | > 50 µM | > 50 µM | > 37 µM | > 50 | > 50 µM | > 50 µM | > 50 µM | > 50 µM | > 50 µM | > 28.6 | 27.5 | 26.6 | 14.7 | > 50 | > 43.9 | 22.3 | > 50 | 21.2 | > 30.1
CC[C@H](C)[C@H](NC(=O)c1nccn1C)C(=O)N(C)[C@H](C[C@@H](OC(C)=O)c1nc(C(=O)N[C@@H](Cc2ccccc2)C[C@H](C)C(=O)OC)cs1)C(C)C | > 33.3 µM | 1.65 µM | > 33.3 µM | > 33.3 µM | > 33.3 | 0.428 µM | > 33.3 µM | 1.56 µM | 11.1 µM | > 33.3 µM | 1.42 | 0.481 | 1.08 | 1.22 | 1.65 | 0.0944 | 2.06 | 0.351 | 1 | 1.72
CCC1OC(/C(C)=C/C(C)/C=C/C2C(C)C2/C=C/C2OC(CC(=O)O)CC(O)C2O)CC=C1C (stereo not drawn) | > 50 µM |  | > 50 µM | > 50 µM | > 50 | > 50 µM | > 50 µM | > 50 µM | > 50 µM | > 50 µM | > 50 |  | > 50 | > 50 | > 50 | > 50 | > 50 | > 50 | > 50 | > 50
C[C@H]1CCC/C=C/[C@@H]2C[C@H](O)C[C@H]2[C@H](O)[C@@H](SC2OC(CO)C(O)C(O)C2O)CC(=O)O1 (stereo partly drawn) | > 100 µM | > 100 µM | > 100 µM |  | > 100 | > 100 µM | > 100 µM | > 100 µM | 58.8 µM | > 100 µM | 98.9 | > 100 | > 100 |  | > 100 | 69.8 | > 100 | > 100 | 23 | > 100
S=c1[nH]nc(SCc2ccccc2Cl)c2[nH]cnc12 | > 100 µM | > 100 µM |  | > 100 µM | > 100 | > 100 µM | > 100 µM | > 100 µM | > 100 µM | > 100 µM |  |  |  |  |  |  |  |  |  | 
O=C1NC(O)CCN1C1CC(O)C(CO)O1 (stereo not drawn) | > 100 µM | > 100 µM | > 100 µM | > 100 µM | > 100 | > 100 µM | > 100 µM | > 100 µM |  | > 100 µM |  |  |  |  |  |  |  |  |  | 
C(#Cc1ccccc1C#Cc1ccccn1)c1ccccn1 | > 100 µM |  | 14.5 µM | 58.8 µM | 20.1 | 22.5 µM | 29.6 µM | 36.3 µM | > 100 µM | 40.2 µM | 25.6 |  | 4.77 | 23.1 | 3.44 | 8.43 | 15.6 | 16.3 | 30.3 | 20.5
